{"source": "patent US20230079448A1", "about": "“DEVICES AND METHODS FOR NEGATIVE PRESSURE THERAPY” (APPLIED TISSUE TECHNOLOGIES LLC, priority 2020, published 2023)", "key": {"common bacteria": {"system": "common bacteria", "settings": "typical value; cited from earlier work"}, "[1]": {"experiment": "Activity of gel-based therapeutics after short-term storage", "type": "physicochemical", "settings": "0.5% (agarose) hydrogel", "text": "According to Table 1, gel-therapeutic agent preparations comprising an antibiotic and a 0.5% (agarose) hydrogel may be stable for up to one week. Drugs dissolve passively into the gel and stay stable over time. In some embodiments, the gel-therapeutic agent preparation may further comprise saline. The gel may be biocompatible, meaning that it is structurally similar to the extracellular matrix in tissues. The gel may be flowable, allowing, for example, casting into a mold or injection via needle through a port. The loading of the […] agent preparation in the device may allow consistent and uniform contact with the skin even with patient movement, maintaining continuous delivery of the therapeutic agent to the underlying tissue. The gel-therapeutic agent preparation may prevent loss of the therapeutic agent in the event of a minor leak in the adhesive of the sealing portion of the device."}}}
{"molecule": "CN[C@H](CC(C)C)C(=O)N[C@H]1C(=O)N[C@@H](CC(N)=O)C(=O)N[C@H]2C(=O)N[C@H]3C(=O)N[C@H](C(=O)N[C@H](C(=O)O)c4cc(O)cc(O)c4-c4cc3ccc4O)[C@H](O)c3ccc(c(Cl)c3)Oc3cc2cc(c3O[C@@H]2O[C@H](CO)[C@@H](O)[C@H](O)[C@H]2O[C@H]2C[C@](C)(N)[C@H](O)[C@H](C)O2)Oc2ccc(cc2Cl)[C@H]1O", "note": "[vancomycin]", "values": [{"measurement": "MIC", "setting": "common bacteria", "result": "around 2 micrograms per mL or cm^3"}]}
{"molecule": "Gentamicin", "values": [{"measurement": "Drug activity", "setting": "[1]; after 3 days storage", "result": 2.41, "unit": "µg/mL"}, {"measurement": "Drug activity", "setting": "[1]; after 7 days storage", "result": 2.04, "unit": "µg/mL"}, {"measurement": "MIC", "setting": "common bacteria", "result": "around 2 micrograms per mL or cm^3"}]}
